We go through three compounds from paper PMC6823370, “A novel nucleoside rescue metabolic pathway may be responsible for therapeutic effect of orally administered cordycepin” (Scientific Reports, 2019).

Each structure is given as a SMILES string. Where two headings read alike, the source gives them in different places.

By Papp A→B is commonly meant the apparent permeability from the apical to the basolateral side of a cell layer. One may read the Cmax as the peak of the concentration-time curve.

Data set [1] in a line: Caco-2 permeability. The data set is classed as in vitro ADME. The note with it: human, Caco-2; read-out: Papp of 3′-deoxyinosine, A to B. How it is done: (§1) Caco-2 permeability assays were conducted following previously reported methods with 21-day maintenance on the Corning 24-well Transwell® (Fisher Scientific, Loughborough, UK)[48]. […] Both directions of apical-to-basolateral and basolateral-to-apical were tested. […] The experiments were conducted in triplicates.
(§2) Samples from Caco-2 permeability, in vitro determination of CordyTP formation and in vivo experiments were subjected to protein precipitation followed by LC-MS/MS analysis. To 50 µL of rat plasma sample, 150 µL of internal standard solution (1.67 µg/mL 2-chloroadenosine in methanol) was added. The samples were then vortex-mixed for 10 s and were centrifuged for 3 min at 17949 g. Supernatant (20 µL) was collected and diluted 10-fold with DDW before injection into the LC-MS/MS for analysis of cordycepin and 3′-deoxyinosine. For analysis of CordyTP, the supernatant was filtered using filter tubes mentioned above and injected without dilution. Tissue samples were homogenised using Bullet Blender Gold (Next Advance, Inc., Troy, NY) in methanol (1:3 w/v) and centrifuged for 3 min at 17949 g. The supernatant was filtered and injected for analysis of CordyTP or diluted 10-fold with DDW for analysis of cordycepin and 3′-deoxyinosine. The LC-MS/MS system was a API4000 QTrap (AB Sciex, Warrington, UK) equipped with HPLC setup of SCL10Avp controller, LC10ADvp pump and SILHTC autosampler (Shimadzu, Milton Keynes, UK). Three different methods were utilised for each compound and multiple reaction monitoring parameters of the MS/MS conditions are shown in Table 1. The HPLC conditions including stationary phases and specific mass spectrometry parameters are shown in Supplementary Information 2. The LC-MS/MS method for cordycepin was fully validated in terms of accuracy, precision, sensitivity, selectivity, linearity and sample storage stability in accordance with the Guidance for Industry, Bioanalytical Method Validation, (2018) published by the US FDA (refer to Supplementary Information 3 for validation procedures and results)[53].
(Caco-2 cells form a polarised layer with tight junctions and transporters.)

Data set [2] relates to Caco-2 cells. Briefly: Caco-2 permeability. In kind it is in vitro ADME. The settings on record: cells treated with cordycepin in the absence of pentostatin. How it is done:
as §1, §2

Data set [3] is described as follows: In vivo pharmacokinetics in rats after intravenous or oral cordycepin. The settings on record: male, Sprague Dawley; for C0: in vivo, read-out: C0 of 3′-deoxyinosine; for Vd: plasma, rat, read-out: Vss of 3′-deoxyinosine. On the set-up: species or system Sprague Dawley rats. How it is done:
Protocols for the animal experiments in this study were reviewed and approved by the University of Nottingham Ethical Review Committee in accordance with the Animals [Scientific Procedures] Act 1986. Four male Sprague Dawley rats (Charles River Laboratories, UK) of 300–350 g body weight were used. The animals were housed in the Bio Support Unit, University of Nottingham at controlled temperature, 12 h light/dark cycle and free access to food and water. The animals were allowed to acclimatise for at least six days prior to any procedures.
Prior to pharmacokinetic studies, jugular vein cannulation surgery was performed under general anaesthesia (<3% isoflurane inhalation) for blood sampling or intravenous drug administration. Following two nights of recovery from surgery, the animals were intravenously or orally administered with the PBS-based formulation (5.5 mg/mL cordycepin) developed in a previously reported study. The dose was 8 or 20 mg/kg for intravenous administration and 8 or 80 mg/kg for oral administration. […] When whole blood was analysed, an aliquot was withdrawn immediately after mixing with the pretreated pentostatin. Otherwise, the mixture was centrifuged (3000 g, 10 min) to obtain plasma and samples were stored within the storage conditions tested prior to analysis.
as §2
Data are presented as mean ± standard deviation (SD). A two-tailed unpaired t-test was applied for assessment of statistical significance of differences between two groups. For three or more groups, the statistical significance was assessed by application of a one-way ANOVA followed by Tukey’s multiple comparisons test. A p-value lower than 0.05 was deemed statistically significant. Statistical analyses were conducted using GraphPad Prism version 7.01 (GraphPad Software, Inc., La Jolla, CA, USA). Pharmacokinetic parameters were obtained by non-compartmental analysis using Phoenix WinNonlin 6.3 software (Pharsight, Mountain View, CA, USA).
For calculation of pharmacokinetic parameters, the plasma concentration-time curve was plotted in a semi-log scale. From the plot, the elimination rate constant (ke) was calculated. Elimination half-life (t1/2) wasthen calculated using the following equation: […]

Data set [4] deals with RAW264.7 cells. The data set is described as follows: Repression of inflammatory gene expression in LPS-stimulated RAW264.7 cells (qPCR). In kind it is cell-based, mouse. The settings on record: for effect of pre-treatment on the inhibitory effect of cordycepin on inflammatory gene expression: LPS. How it is done: RAW 264.7 mouse macrophage cells were cultured in DMEM supplemented with 10% FBS. Prior to experiments, cells were washed with PBS and cells were maintained in DMEM with 0.5% FBS or 10% FBS for 24 h. LPS was added at 1 µg/mL, 1 h before compound treatment, when needed. When the cells were analysed for concentration levels of cordycepin, 3′-deoxyinosine and CordyTP, the cells were washed twice with PBS. The cells were then treated with methanol and mixed vigorously before the mixture was harvested. The mixture was filtered using filter tubes mentioned above and the filtrate was analysed by liquid chromatography coupled with tandem mass spectrometry (LC-MS/MS). For determination of relative mRNA levels, RNA was isolated from the lysates using an RNA isolation kit, following manufacturer’s protocol (Promega, Madison, WI, cat no. Z6012). RNA was reverse transcribed to cDNA using SuperScript™ III reverse transcriptase (Invitrogen, Carlsbad, CA). Quantitative polymerase chain reaction (qPCR), was performed with Qiagen Rotor-Gene Q qPCR machine (Qiagen, Hilden, Germany) using Promega SYBR Green GoTaq® qPCR master mix (Promega).
Figure 3 Repression effect on inflammatory gene expression. (a) NBTI or ITu treatment prior to cordycepin treatment suppresses effect of cordycepin. RAW264.7 cells were treated with 10 µM NBTI, 100 nM ITu or DMSO (Ctrl, control) 15 min prior to cordycepin treatment. The cells were stimulated with LPS 1 h after cordycepin treatment (mean ± SD, n = 3). **p < 0.01; ***p < 0.001 compared to DMSO treatment (labelled as Ctrl). (b) 3′-deoxyinosine exerts same repression effect as cordycepin, although to a lesser degree. RAW264.7 cells were treated with 20 µM cordycepin, 20 µM 3′-deoxyinosine (3DI) or DMSO (Ctrl, control) for 1 h prior to LPS stimulation (mean ± SD, n = 3). **p < 0.01; ***p < 0.001 compared to without compound treatment (labelled as LPS).
A general note: Quantitative PCR measures a nucleic acid by following its amplification.

`OC[C@@H]1C[C@@H](O)[C@H](n2cnc3c(O)ncnc32)O1` [3′-deoxyinosine]: the Papp A→B at 120 min, 200 µM in data set [1] was around 0.2 ×10⁻⁶ cm/s. For the same compound, in data set [2], the “permeation of 3′-deoxyinosine” value was “detected”. For the same compound, the C0 was 5730 ± 1630 ng/mL in data set [3] (rat plasma, intravenous cordycepin 8 mg/kg) and 16300 ± 3870 ng/mL in data set [3] (rat plasma, intravenous cordycepin 20 mg/kg). Also, the results for the Vd in data set [3] (intravenous cordycepin 8 mg/kg) and in data set [3] (intravenous cordycepin 20 mg/kg) were 2.8 ± 0.3 L/kg and 3 ± 0.7 L/kg, respectively. For the same compound, the highest concentration (Cmax) in data set [3] (rat plasma, oral cordycepin 8 mg/kg, read-out: Cmax of 3′-deoxyinosine) was determined as 202 ± 98 ng/mL. The “effect on expression of inflammatory genes” value in data set [4] (20 µM, 1 h prior to LPS stimulation) was “suppressed expression of inflammatory genes”.

In the case of `Nc1ncnc2c1c(I)cn2[C@@H]1O[C@H](CO)[C@@H](O)[C@H]1O` [ITu, 5-iodotubericidin, reference compound], in data set [4] (100 nM ITu 15 min prior to cordycepin), the “effect of pre-treatment on the inhibitory effect of cordycepin on inflammatory gene expression” value was “inhibit the inhibitory effect of cordycepin”.

Regarding `O=[N+]([O-])c1ccc(CSc2ncnc3c2ncn3[C@@H]2O[C@H](CO)[C@@H](O)[C@H]2O)cc1` [NBTI, S-(4-nitrobenzyl)-6-thioinosine, reference compound], in data set [4] (10 µM NBTI 15 min prior to cordycepin), the “effect of pre-treatment on the inhibitory effect of cordycepin on inflammatory gene expression” value was “inhibit the inhibitory effect of cordycepin”.
